In one assay the test system is acetylcholinesterase. Particulars: cited from earlier work.
The target in assay [1] is T1, Catalase from human erythrocytes (EC 1.11.1.6, CAT) (Homo sapiens, UniProt P04040).
T1 construct: Catalase from human erythrocytes (EC 1.11.1.6, CAT); purchased Sigma–Aldrich (Poznań, Poland); host or cells: human erythrocytes (natural source)
T1 sequence (P04040 2-527 limits assumed): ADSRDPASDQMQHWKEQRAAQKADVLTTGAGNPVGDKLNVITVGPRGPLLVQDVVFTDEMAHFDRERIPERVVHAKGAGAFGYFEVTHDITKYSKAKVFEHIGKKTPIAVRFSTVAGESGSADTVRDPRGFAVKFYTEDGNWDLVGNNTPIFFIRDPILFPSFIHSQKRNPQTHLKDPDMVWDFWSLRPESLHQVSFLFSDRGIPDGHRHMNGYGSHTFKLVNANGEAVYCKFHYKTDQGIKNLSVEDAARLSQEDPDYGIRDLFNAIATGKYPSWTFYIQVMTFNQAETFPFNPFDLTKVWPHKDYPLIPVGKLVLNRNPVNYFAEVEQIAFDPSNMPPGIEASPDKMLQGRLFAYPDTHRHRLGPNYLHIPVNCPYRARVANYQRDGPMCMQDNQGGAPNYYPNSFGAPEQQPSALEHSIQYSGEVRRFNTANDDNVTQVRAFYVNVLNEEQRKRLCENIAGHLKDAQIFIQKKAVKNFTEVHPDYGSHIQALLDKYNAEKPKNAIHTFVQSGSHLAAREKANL
The assay can be described thus: Catalase (CAT) inhibition kinetics by capillary electrophoresis (hydrogen peroxide/guaiacol/tetraguaiacol). To be noted: for Type of inhibition: from Km and Vmax versus control system; for IC50: from activity (%) versus inhibitor concentration plots, one value per compound; for Slope (slope angle of Lineweaver–Burk line): n = 6; for tetraguaiacol (TGCOL) concentration in the presence of inhibitor / guaiacol (GCOL) concentration in the presence of inhibitor: hydrogen peroxide 10 mM, 20.00 mM GCOL; for tetraguaiacol (TGCOL) concentration in the presence of inhibitor: without inhibitors 0.00 mM; for guaiacol (GCOL) concentration in the presence of inhibitor: without inhibitors 20.00 mM. The class given is biochemical. The text has this:
In this study, we used the capillary electrophoresis (CE) method developed by us to determine the tetraguaiacol complex as a product of the catalase-catalyzed reaction (CAT) (Table 1) in the presence of the enzyme, hydrogen peroxide (HPER) (as a substrate), guaiacol (GCOL) and inhibitors (I), (II), (III) and (IV) (Figure 2). Based on this method, we investigated changes in the concentration of guaiacol reacting with changes in the concentration of hydrogen peroxide depending on the activity of catalase and changes in the concentrations of the formed tetraguaiacol as the final reaction product. The developed CE technique made it possible to measure all the parameters thanks to the possibility of using three wavelengths simultaneously in one analysis. Investigations of kinetic parameters were based on mutual measurements of concentration changes between guaiacol (as the second reactant reacting with hydrogen peroxide) and tetraguaiacol as the final reaction product.
For the development of this method, we optimized the buffer pH, separating background electrolyte (BGE) concentration, wavelength, temperature, and voltage in accordance with the earlier procedure. […]. All these separation systems were tested to achieve the best separation parameters, resolution, and analysis time for all components in the reaction mixture. The best separation of tetraguaiacol, guaiacol, catalase (CAT) and compounds (I), (II), (III), (IV) was obtained with 100 mM phosphate buffer (pH 7.5). The measurements were taken at 214, 274 and 470 nm with a fused-silica capillary (effective length: 20 cm, diameter: 50 μm). The capillary temperature was 25 °C, which allowed the best resolution to be achieved. Separation was carried out at 20 kV. Each sample was added to the capillary under hydrodynamic injection. Average detection times for guaiacol (GCOL), compounds (I), (II), (III), (IV), tetraguaiacol (TGCOL) and CAT were […], respectively (Figure 2). […]. […]
Electrophoretic separations of catalase (CAT), hydrogen peroxide, guaiacol (GCOL) tetra guaiacol (TGCOL), and inhibitors (I), (II), (III) and (IV) of catalase, by CE was performed using 100 mM (NaH2PO4) phosphate buffer as a background electrolyte (BGE) adjusted with 100 mM sodium hydroxide to the pH = 7.5. The samples were injected under 5 psi pressure for 3 s. The experiments were performed under constant current conditions (97 μA). The separation temperature was 25 °C, and the detection wavelengths were set at 214, 274 and 470 nm. Before the assay, the capillary was conditioned according to the previously described procedure.
Sample mixtures containing catalase (CAT), hydrogen peroxide (HPER), guaiacol (GCOL), tetra guaiacol (TGCOL), and inhibitors (I), (II), (III) and (IV) were introduced automatically by pressure injection (with 5 psi pressure for 3 s on the sample solution). At the day’s end, vials with anode and a cathode buffer were emptied and a running buffer was filled again at the start of the next day before the analysis. The detector wavelength was fixed at 470 nm. Hydrogen peroxide was not detected at wavelength of 470 nm. The appropriate parameters for analyzing CAT, TGCOL and (I), (II), (III) and (IV) inhibitors were as follows: phosphate buffer (pH = 7.5) of 100 mM concentration, 25 °C temperature, and 20 kV voltage.
The CAT in the amount of 10 μg was dissolved in the 10 mL 100 mM phosphate buffer, pH 7.5 and divided into several portions, which were stored at −20 °C. One aliquot was thawed each day and the CAT activity was checked. For kinetic studies a catalase solution with a final concentration of 1 µg/mL was prepared. The working solutions of GCOL, TGCOL and HPER in appropriate concentrations were prepared immediately before use by dilution with the phosphate buffer according to the previously described procedure. […]

Another assay deals with alkaline phosphatase. Particulars: cited from earlier work.
A further assay relates to acid phosphatase. Also on record: method as in PMID 34769193. To be noted: cited from earlier work.
The test system of another assay is CAT. Particulars: cited from earlier work.
Where [2] appears, read: inhibitor 2.50 mM, without inhibitor 1.26 ± 0.02.
The mark [3] stands for this setting: inhibitor 2.50 mM, without inhibitor 23.31 ± 0.04.

Like-named read-outs stand apart in the source and are kept apart here.

A word on the IC50: it is the concentration that inhibits the measured activity by half. One may read the Vmax as the rate approached at saturating substrate. Take `CCC12C(=O)C(CC)(C(c3ccccc3)=C1c1ccccc1)C1C(=O)N(CC(O)CNC(C)C)C(=O)C12` (stereo not shown) [Compound (I)]: the “inhibition of enzymatic activity” value in the assay with acetylcholinesterase, in the assay on alkaline phosphatase and in the assay with acid phosphatase was “inhibited” in each case. Further, in assay [1], the Type of inhibition result is “Competitive”. For the same compound, the half-inhibitory concentration (IC50) in assay [1] turned out to be 11.4 ± 0.05 mM. For the same compound, the Vmax in assay [1] (setting [2]) is 1.25 ± 0.04 mM/min; in assay [1] (inhibitor 5.00 mM), 1.24 ± 0.07 mM/min; in assay [1] (inhibitor 10.00 mM), 1.25 ± 0.05 mM/min; in assay [1] (inhibitor 15.00 mM), 1.24 ± 0.07 mM/min; in assay [1] (inhibitor 20.00 mM), 1.25 ± 0.05 mM/min. Further, the “Slope (slope angle of Lineweaver–Burk line)” value (“Slope” below) in assay [1] (setting [3]) is reported as 24.72 ± 0.05; in assay [1] (inhibitor 5.00 mM), 25.43 ± 0.05; in assay [1] (inhibitor 10.00 mM) it was 27.33 ± 0.06; in assay [1] (inhibitor 15.00 mM), 28.62 ± 0.06; in assay [1] (inhibitor 20.00 mM), 30.75 ± 0.04. Also, the “tetraguaiacol (TGCOL) concentration in the presence of inhibitor” value (from here on “tetraguaiacol … of inhibitor”) in assay [1] (inhibitor 20.00 mM) was determined as 5.86 mM. The “guaiacol (GCOL) concentration in the presence of inhibitor” value in assay [1] (inhibitor 20.00 mM) turned out to be 14.14 mM.
Take `CCC12C(=O)C(CC)(C(c3ccccc3)=C1c1ccccc1)C1C(=O)N(CC(O)CN(C)C)C(=O)C12` (stereo not shown) [Compound (II)]: the “inhibition of enzymatic activity” value in the assay with acetylcholinesterase, with alkaline phosphatase and with acid phosphatase was “inhibited” throughout. In addition, the Type of inhibition entry in assay [1] is recorded as “Competitive”. Moreover, the 50% inhibitory concentration (IC50) in assay [1] is 12.8 ± 0.07 mM. Also, the Vmax in assay [1] (setting [2]) amounted to 1.24 ± 0.06 mM/min; in assay [1] (inhibitor 5.00 mM), 1.24 ± 0.06 mM/min; in assay [1] (inhibitor 10.00 mM), 1.26 ± 0.03 mM/min; in assay [1] (inhibitor 15.00 mM) it was 1.25 ± 0.04 mM/min; in assay [1] (inhibitor 20.00 mM) it was 1.24 ± 0.04 mM/min. The “Slope” value is recorded as 23.70 ± 0.05 in assay [1] (setting [3]); 24.24 ± 0.05 in assay [1] (inhibitor 5.00 mM); 25.30 ± 0.06 in assay [1] (inhibitor 10.00 mM); 26.00 ± 0.04 in assay [1] (inhibitor 15.00 mM); 27.06 ± 0.05 in assay [1] (inhibitor 20.00 mM). Moreover, the “tetraguaiacol … of inhibitor” value in assay [1] (inhibitor 20.00 mM) was 2.44 mM. The “guaiacol (GCOL) concentration in the presence of inhibitor” value in assay [1] (inhibitor 20.00 mM) was found to be 17.56 mM.
As for `[N-]=[N+]=[N-]` [sodium azide], in the assay on CAT, the half-inhibitory concentration (IC50) is 0.025 mM.
`NO` [hydroxylamine]: the IC50 with CAT is 0.02 mM.
`CN(C)CC(O)CN1C(=O)C2C(C1=O)C1(C)C(=O)C2(C)C(c2ccccc2)=C1c1ccccc1` (stereo not shown) [Compound (IV)]: the “inhibition of enzymatic activity” value with acetylcholinesterase, with alkaline phosphatase and in the assay on acid phosphatase was “inhibited” throughout. In assay [1], the Type of inhibition entry is given as “Competitive”. For the same compound, in assay [1], the IC50 came to 12.2 ± 0.06 mM. The Vmax amounted to 1.25 ± 0.03 mM/min in assay [1] (setting [2]); 1.24 ± 0.06 mM/min in assay [1] (inhibitor 5.00 mM); 1.24 ± 0.06 mM/min in assay [1] (inhibitor 10.00 mM); 1.23 ± 0.05 mM/min in assay [1] (inhibitor 15.00 mM); 1.26 ± 0.02 mM/min in assay [1] (inhibitor 20.00 mM). Besides, the “Slope” value in assay [1] (setting [3]) came to 24.33 ± 0.06; in assay [1] (inhibitor 5.00 mM), 25.00 ± 0.05; in assay [1] (inhibitor 10.00 mM), 26.24 ± 0.04; in assay [1] (inhibitor 15.00 mM), 27.30 ± 0.05; in assay [1] (inhibitor 20.00 mM), 29.27 ± 0.03. Besides, in assay [1] (inhibitor 20.00 mM), the “tetraguaiacol … of inhibitor” value was 4.39 mM. In assay [1] (inhibitor 20.00 mM), the “guaiacol (GCOL) concentration in the presence of inhibitor” value is recorded as 15.61 mM.
Turning to `CC(C)NCC(O)CN1C(=O)C2C(C1=O)C1(C)C(=O)C2(C)C(c2ccccc2)=C1c1ccccc1` (stereo not shown) [Compound (III)], the “inhibition of enzymatic activity” value in the assay with acetylcholinesterase, with alkaline phosphatase and in the assay on acid phosphatase was “inhibited” in each case. Besides, the Type of inhibition entry in assay [1] is on record as “Competitive”. The compound also registered an IC50 in assay [1] of 10.3 ± 0.03 mM. The maximum rate (Vmax) in assay [1] (setting [2]) is 1.24 ± 0.07 mM/min; in assay [1] (inhibitor 5.00 mM), 1.25 ± 0.08 mM/min; in assay [1] (inhibitor 10.00 mM) it was 1.24 ± 0.07 mM/min; in assay [1] (inhibitor 15.00 mM) it was 1.24 ± 0.09 mM/min; in assay [1] (inhibitor 20.00 mM), 1.25 ± 0.02 mM/min. For the same compound, the “Slope” value in assay [1] (setting [3]) is reported as 25.09 ± 0.04; in assay [1] (inhibitor 5.00 mM) it was 25.84 ± 0.05; in assay [1] (inhibitor 10.00 mM), 28.60 ± 0.04; in assay [1] (inhibitor 20.00 mM), 32.68 ± 0.02. Also, the “tetraguaiacol … of inhibitor” value in assay [1] (inhibitor 20.00 mM) is listed as 8.29 mM. Besides, the “guaiacol (GCOL) concentration in the presence of inhibitor” value in assay [1] (inhibitor 20.00 mM) is listed as 11.71 mM.
Regarding `Nc1nc[nH]n1` [3-Amino-1,2,4-triazole], the IC50 with CAT (specific catalase inhibitor) was 6 mM.

The record behind these values is PMC9266750, “Catalase Inhibition by Aminoalkanol Derivatives with Potential Anti-Cancer Activity—In Vitro and In Silico Studies Using Capillary Electrophoresis Method” (International Journal of Molecular Sciences, 2022).
